Results: ChEMBL document CHEMBL3991601, “The target landscape of clinical kinase drugs” (Science, 2017)
Calls of active or inactive are those of the source. Rule as the data show it: actives have a measured Kd and inactives only a lower limit.

Target: T1, Aurora kinase A (Homo sapiens, UniProt O14965)
T1 sequence (O14965 whole entry): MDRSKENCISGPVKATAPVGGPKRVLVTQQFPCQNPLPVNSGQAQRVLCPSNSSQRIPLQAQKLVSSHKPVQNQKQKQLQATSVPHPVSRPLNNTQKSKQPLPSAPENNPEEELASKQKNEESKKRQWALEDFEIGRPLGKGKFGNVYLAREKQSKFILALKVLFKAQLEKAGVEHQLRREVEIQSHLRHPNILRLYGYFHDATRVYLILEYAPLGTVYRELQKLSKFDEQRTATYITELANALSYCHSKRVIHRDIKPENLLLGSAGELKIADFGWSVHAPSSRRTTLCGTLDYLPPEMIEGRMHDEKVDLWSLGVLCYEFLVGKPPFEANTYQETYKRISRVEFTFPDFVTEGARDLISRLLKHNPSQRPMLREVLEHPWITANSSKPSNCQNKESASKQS
Also: in the data inactive means no Kd found up to 30 µM.

How did the Kd turn out when Cn1cc(-c2ccc3nnc(C(F)(F)c4ccc5ncccc5c4)n3n2)cn1 [JNJ-38877605] was run?
The Kd was > 30 µM (inactive).

COC(=O)[C@@]1(O)C[C@H]2O[C@]1(C)n1c3ccccc3c3c4c(c5c6ccccc6n2c5c31)C(=O)NC4 [K-252A] was tested. Which Kd did it give?
The Kd was 0.02 µM (active).

Cc1c(F)cc(C(=O)NC2CC2)cc1-c1ccc(C(=O)NCC(C)(C)C)cn1 [LOSMAPIMOD] was tested. Which Kd did it give?
The Kd was > 30 µM (inactive).

Cn1cc(-c2ccc(F)c(C(F)(F)F)c2)nc1C1CCN(c2ncnc3[nH]ncc23)CC1 [LY-2584702] was tested. Which Kd did it give?
The Kd was > 30 µM (inactive).

How did the Kd turn out when C1=C/COCc2cc(ccc2OCCN2CCCC2)Nc2nccc(n2)-c2cccc(c2)COC/1 [PACRITINIB] was run?
The Kd was > 30 µM (inactive).

Which Kd does the source give for Cc1ccc(-n2nc(C(C)(C)C)cc2NC(=O)NCc2cc(F)ccc2Oc2ccc3c(cnn3CCO)c2)cc1 [PEXMETINIB] here?
The Kd was > 30 µM (inactive).

Which Kd does the source give for CNC(=O)c1ccc(C)c(-n2c(C)cc(OCc3ccc(F)cc3F)c(Br)c2=O)c1 [PH-797804] here?
Its Kd is > 30 µM (inactive).

For C=CC(=O)N1CCC(Oc2cc3c(Nc4ccc(Cl)c(Cl)c4F)ncnc3cc2OC)CC1 [POZIOTINIB], which Kd is on record?
The Kd was > 30 µM (inactive).

For CNC(=O)c1cc(Oc2ccc(NC(=O)Nc3ccc(Cl)c(C(F)(F)F)c3)c(F)c2)ccn1 [REGORAFENIB], which Kd is on record?
Its Kd is > 30 µM (inactive).

With CN(C)C(=O)c1cc2cnc(Nc3ccc(N4CCNCC4)cn3)nc2n1C1CCCC1 [RIBOCICLIB] as the compound, how does the Kd read?
The Kd was > 30 µM (inactive).

How did the Kd turn out when COc1cc(OC)c(/C=C/S(=O)(=O)Cc2ccc(OC)c(NCC(=O)O)c2)c(OC)c1 [RIGOSERTIB] was run?
The Kd was > 30 µM (inactive).

How did the Kd turn out when CNC(=O)CN1CCC(Oc2cc3c(Nc4cccc(Cl)c4F)ncnc3cc2OC)CC1 [SAPITINIB] was run?
Its Kd is > 30 µM (inactive).

Target: Serine/threonine-protein kinase SIK2 (Homo sapiens, UniProt Q9H0K1)
Sequence (Q9H0K1 whole entry): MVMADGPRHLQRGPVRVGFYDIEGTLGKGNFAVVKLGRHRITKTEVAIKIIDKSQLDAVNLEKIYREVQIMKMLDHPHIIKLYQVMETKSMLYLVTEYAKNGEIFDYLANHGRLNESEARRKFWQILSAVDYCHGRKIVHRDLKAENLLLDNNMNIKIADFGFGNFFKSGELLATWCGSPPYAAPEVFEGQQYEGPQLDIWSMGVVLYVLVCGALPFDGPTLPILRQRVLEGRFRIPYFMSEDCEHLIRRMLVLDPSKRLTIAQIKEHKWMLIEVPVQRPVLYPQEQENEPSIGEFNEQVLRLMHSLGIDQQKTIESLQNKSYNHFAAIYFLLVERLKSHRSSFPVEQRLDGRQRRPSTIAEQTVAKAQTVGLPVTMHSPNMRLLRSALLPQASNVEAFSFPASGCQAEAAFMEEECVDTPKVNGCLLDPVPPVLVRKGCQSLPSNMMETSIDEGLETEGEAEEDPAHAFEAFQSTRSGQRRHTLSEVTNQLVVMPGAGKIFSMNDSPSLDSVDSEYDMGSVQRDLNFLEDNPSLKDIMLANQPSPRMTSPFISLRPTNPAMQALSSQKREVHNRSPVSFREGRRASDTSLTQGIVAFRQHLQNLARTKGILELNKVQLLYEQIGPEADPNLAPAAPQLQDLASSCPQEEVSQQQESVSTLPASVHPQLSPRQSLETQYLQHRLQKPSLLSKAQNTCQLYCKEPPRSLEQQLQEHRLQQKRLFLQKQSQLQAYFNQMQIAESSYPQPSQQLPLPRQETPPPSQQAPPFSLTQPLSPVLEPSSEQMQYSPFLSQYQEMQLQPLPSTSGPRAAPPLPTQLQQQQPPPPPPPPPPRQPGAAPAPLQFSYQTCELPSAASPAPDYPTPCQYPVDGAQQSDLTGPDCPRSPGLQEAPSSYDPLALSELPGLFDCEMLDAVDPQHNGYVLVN

How did the Kd turn out when Cn1cc(-c2ccc3nnc(C(F)(F)c4ccc5ncccc5c4)n3n2)cn1 [JNJ-38877605] was run?
Its Kd is > 30 µM (inactive).

For COC(=O)[C@@]1(O)C[C@H]2O[C@]1(C)n1c3ccccc3c3c4c(c5c6ccccc6n2c5c31)C(=O)NC4 [K-252A], which Kd is on record?
The Kd was 0.058 µM (active).

Which Kd does the source give for Cc1c(F)cc(C(=O)NC2CC2)cc1-c1ccc(C(=O)NCC(C)(C)C)cn1 [LOSMAPIMOD] here?
The Kd was > 30 µM (inactive).

Cn1cc(-c2ccc(F)c(C(F)(F)F)c2)nc1C1CCN(c2ncnc3[nH]ncc23)CC1 [LY-2584702] was tested. Which Kd did it give?
The Kd was > 30 µM (inactive).

Which Kd does the source give for C1=C/COCc2cc(ccc2OCCN2CCCC2)Nc2nccc(n2)-c2cccc(c2)COC/1 [PACRITINIB] here?
Its Kd is > 30 µM (inactive).

Which Kd does the source give for Cc1ccc(-n2nc(C(C)(C)C)cc2NC(=O)NCc2cc(F)ccc2Oc2ccc3c(cnn3CCO)c2)cc1 [PEXMETINIB] here?
The Kd was > 30 µM (inactive).

With CNC(=O)c1ccc(C)c(-n2c(C)cc(OCc3ccc(F)cc3F)c(Br)c2=O)c1 [PH-797804] as the compound, how does the Kd read?
The Kd was > 30 µM (inactive).

C=CC(=O)N1CCC(Oc2cc3c(Nc4ccc(Cl)c(Cl)c4F)ncnc3cc2OC)CC1 [POZIOTINIB] was tested. Which Kd did it give?
The Kd was > 30 µM (inactive).

With CNC(=O)c1cc(Oc2ccc(NC(=O)Nc3ccc(Cl)c(C(F)(F)F)c3)c(F)c2)ccn1 [REGORAFENIB] as the compound, how does the Kd read?
Its Kd is > 30 µM (inactive).

How did the Kd turn out when CN(C)C(=O)c1cc2cnc(Nc3ccc(N4CCNCC4)cn3)nc2n1C1CCCC1 [RIBOCICLIB] was run?
Its Kd is 2.49 µM (active).

With COc1cc(OC)c(/C=C/S(=O)(=O)Cc2ccc(OC)c(NCC(=O)O)c2)c(OC)c1 [RIGOSERTIB] as the compound, how does the Kd read?
The Kd was > 30 µM (inactive).

For CNC(=O)CN1CCC(Oc2cc3c(Nc4cccc(Cl)c4F)ncnc3cc2OC)CC1 [SAPITINIB], which Kd is on record?
The Kd was > 30 µM (inactive).

Target: T2, Ephrin type-B receptor 4 (Homo sapiens, UniProt P54760)
T2 sequence (P54760 whole entry): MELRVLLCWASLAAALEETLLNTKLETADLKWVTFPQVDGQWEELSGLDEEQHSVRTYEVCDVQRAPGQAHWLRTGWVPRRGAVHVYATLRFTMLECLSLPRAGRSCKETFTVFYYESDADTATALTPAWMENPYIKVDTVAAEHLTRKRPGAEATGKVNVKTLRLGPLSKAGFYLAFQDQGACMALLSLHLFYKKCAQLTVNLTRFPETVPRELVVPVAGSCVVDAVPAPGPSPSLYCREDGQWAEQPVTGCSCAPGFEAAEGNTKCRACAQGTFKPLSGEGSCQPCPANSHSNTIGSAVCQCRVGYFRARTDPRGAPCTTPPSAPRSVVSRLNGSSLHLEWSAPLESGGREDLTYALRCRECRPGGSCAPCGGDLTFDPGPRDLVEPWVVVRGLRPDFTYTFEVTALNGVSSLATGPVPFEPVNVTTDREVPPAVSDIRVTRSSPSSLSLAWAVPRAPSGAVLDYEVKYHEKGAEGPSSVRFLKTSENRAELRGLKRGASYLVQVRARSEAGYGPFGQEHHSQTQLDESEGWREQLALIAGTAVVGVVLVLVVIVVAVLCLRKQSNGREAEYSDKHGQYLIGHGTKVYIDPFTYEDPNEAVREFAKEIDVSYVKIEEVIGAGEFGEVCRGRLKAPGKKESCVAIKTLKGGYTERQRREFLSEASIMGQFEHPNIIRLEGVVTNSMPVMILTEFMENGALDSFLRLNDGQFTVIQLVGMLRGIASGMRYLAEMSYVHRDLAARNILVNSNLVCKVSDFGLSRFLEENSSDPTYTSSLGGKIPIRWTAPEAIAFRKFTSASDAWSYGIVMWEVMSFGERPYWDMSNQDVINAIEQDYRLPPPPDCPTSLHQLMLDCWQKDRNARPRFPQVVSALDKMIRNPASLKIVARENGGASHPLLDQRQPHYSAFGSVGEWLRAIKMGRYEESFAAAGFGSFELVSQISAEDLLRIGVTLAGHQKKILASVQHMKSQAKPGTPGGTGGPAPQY

How did the Kd turn out when Cn1cc(-c2ccc3nnc(C(F)(F)c4ccc5ncccc5c4)n3n2)cn1 [JNJ-38877605] was run?
The Kd was > 30 µM (inactive).

With COC(=O)[C@@]1(O)C[C@H]2O[C@]1(C)n1c3ccccc3c3c4c(c5c6ccccc6n2c5c31)C(=O)NC4 [K-252A] as the compound, how does the Kd read?
Its Kd is > 30 µM (inactive).

Which Kd does the source give for Cc1c(F)cc(C(=O)NC2CC2)cc1-c1ccc(C(=O)NCC(C)(C)C)cn1 [LOSMAPIMOD] here?
The Kd was > 30 µM (inactive).

For Cn1cc(-c2ccc(F)c(C(F)(F)F)c2)nc1C1CCN(c2ncnc3[nH]ncc23)CC1 [LY-2584702], which Kd is on record?
Its Kd is > 30 µM (inactive).

How did the Kd turn out when C1=C/COCc2cc(ccc2OCCN2CCCC2)Nc2nccc(n2)-c2cccc(c2)COC/1 [PACRITINIB] was run?
Its Kd is > 30 µM (inactive).

Which Kd does the source give for Cc1ccc(-n2nc(C(C)(C)C)cc2NC(=O)NCc2cc(F)ccc2Oc2ccc3c(cnn3CCO)c2)cc1 [PEXMETINIB] here?
The Kd was 5.21 µM.

For CNC(=O)c1ccc(C)c(-n2c(C)cc(OCc3ccc(F)cc3F)c(Br)c2=O)c1 [PH-797804], which Kd is on record?
The Kd was > 30 µM (inactive).

For C=CC(=O)N1CCC(Oc2cc3c(Nc4ccc(Cl)c(Cl)c4F)ncnc3cc2OC)CC1 [POZIOTINIB], which Kd is on record?
Its Kd is 0.34 µM (active).

For CNC(=O)c1cc(Oc2ccc(NC(=O)Nc3ccc(Cl)c(C(F)(F)F)c3)c(F)c2)ccn1 [REGORAFENIB], which Kd is on record?
Its Kd is > 30 µM (inactive).

For CN(C)C(=O)c1cc2cnc(Nc3ccc(N4CCNCC4)cn3)nc2n1C1CCCC1 [RIBOCICLIB], which Kd is on record?
Its Kd is > 30 µM (inactive).

COc1cc(OC)c(/C=C/S(=O)(=O)Cc2ccc(OC)c(NCC(=O)O)c2)c(OC)c1 [RIGOSERTIB] was tested. Which Kd did it give?
The Kd was > 30 µM (inactive).

CNC(=O)CN1CCC(Oc2cc3c(Nc4cccc(Cl)c4F)ncnc3cc2OC)CC1 [SAPITINIB] was tested. Which Kd did it give?
The Kd was 0.556 µM (active).

Target: T3, Serine/threonine-protein kinase D2 (Homo sapiens, UniProt Q9BZL6)
T3 sequence (Q9BZL6 whole entry): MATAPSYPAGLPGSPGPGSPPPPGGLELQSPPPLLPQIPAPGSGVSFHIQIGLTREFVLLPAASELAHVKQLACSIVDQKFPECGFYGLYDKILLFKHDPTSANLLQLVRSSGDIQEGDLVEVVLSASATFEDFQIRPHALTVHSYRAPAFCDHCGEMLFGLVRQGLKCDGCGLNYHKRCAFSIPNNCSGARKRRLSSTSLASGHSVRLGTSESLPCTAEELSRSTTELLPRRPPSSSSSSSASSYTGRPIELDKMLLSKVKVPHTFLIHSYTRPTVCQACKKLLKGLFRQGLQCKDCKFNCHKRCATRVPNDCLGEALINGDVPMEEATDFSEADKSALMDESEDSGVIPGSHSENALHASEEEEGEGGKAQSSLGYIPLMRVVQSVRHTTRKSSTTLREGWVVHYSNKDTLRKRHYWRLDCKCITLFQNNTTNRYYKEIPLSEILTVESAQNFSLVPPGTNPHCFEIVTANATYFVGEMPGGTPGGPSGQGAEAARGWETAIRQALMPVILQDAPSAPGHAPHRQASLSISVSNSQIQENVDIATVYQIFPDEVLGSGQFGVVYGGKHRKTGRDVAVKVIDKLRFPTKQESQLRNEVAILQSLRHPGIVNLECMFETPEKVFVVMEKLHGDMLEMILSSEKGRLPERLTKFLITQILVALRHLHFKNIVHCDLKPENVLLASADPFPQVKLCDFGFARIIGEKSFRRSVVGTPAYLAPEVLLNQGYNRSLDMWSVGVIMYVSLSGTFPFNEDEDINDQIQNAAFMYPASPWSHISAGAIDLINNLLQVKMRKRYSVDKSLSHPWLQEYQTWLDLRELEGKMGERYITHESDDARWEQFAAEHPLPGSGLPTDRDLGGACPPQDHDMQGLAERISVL

How did the Kd turn out when Cn1cc(-c2ccc3nnc(C(F)(F)c4ccc5ncccc5c4)n3n2)cn1 [JNJ-38877605] was run?
Its Kd is > 30 µM (inactive).

COC(=O)[C@@]1(O)C[C@H]2O[C@]1(C)n1c3ccccc3c3c4c(c5c6ccccc6n2c5c31)C(=O)NC4 [K-252A] was tested. Which Kd did it give?
Its Kd is 0.03 µM (active).

How did the Kd turn out when Cc1c(F)cc(C(=O)NC2CC2)cc1-c1ccc(C(=O)NCC(C)(C)C)cn1 [LOSMAPIMOD] was run?
The Kd was > 30 µM (inactive).

For Cn1cc(-c2ccc(F)c(C(F)(F)F)c2)nc1C1CCN(c2ncnc3[nH]ncc23)CC1 [LY-2584702], which Kd is on record?
Its Kd is > 30 µM (inactive).

Which Kd does the source give for C1=C/COCc2cc(ccc2OCCN2CCCC2)Nc2nccc(n2)-c2cccc(c2)COC/1 [PACRITINIB] here?
Its Kd is > 30 µM (inactive).

For Cc1ccc(-n2nc(C(C)(C)C)cc2NC(=O)NCc2cc(F)ccc2Oc2ccc3c(cnn3CCO)c2)cc1 [PEXMETINIB], which Kd is on record?
The Kd was > 30 µM (inactive).

Which Kd does the source give for CNC(=O)c1ccc(C)c(-n2c(C)cc(OCc3ccc(F)cc3F)c(Br)c2=O)c1 [PH-797804] here?
Its Kd is > 30 µM (inactive).

For C=CC(=O)N1CCC(Oc2cc3c(Nc4ccc(Cl)c(Cl)c4F)ncnc3cc2OC)CC1 [POZIOTINIB], which Kd is on record?
The Kd was > 30 µM (inactive).

How did the Kd turn out when CNC(=O)c1cc(Oc2ccc(NC(=O)Nc3ccc(Cl)c(C(F)(F)F)c3)c(F)c2)ccn1 [REGORAFENIB] was run?
The Kd was > 30 µM (inactive).

For CN(C)C(=O)c1cc2cnc(Nc3ccc(N4CCNCC4)cn3)nc2n1C1CCCC1 [RIBOCICLIB], which Kd is on record?
Its Kd is 25 µM (active).

How did the Kd turn out when COc1cc(OC)c(/C=C/S(=O)(=O)Cc2ccc(OC)c(NCC(=O)O)c2)c(OC)c1 [RIGOSERTIB] was run?
Its Kd is > 30 µM (inactive).

CNC(=O)CN1CCC(Oc2cc3c(Nc4cccc(Cl)c4F)ncnc3cc2OC)CC1 [SAPITINIB] was tested. Which Kd did it give?
The Kd was > 30 µM (inactive).
